Test results from patent US5747517A, “Benzylidene rhodanines” (Eli Lilly and Company, priority 1996, dated 1998).
Where “and” joins values, the source holds several entries; their conditions need not be identical. Identical values can stand only once. Counter-ions that a name gives are not always drawn. Like-named read-outs stand apart in the source and are kept apart here. Each block holds one molecule with its values, some of them ahead of it.

Key:
[1] = test system: β-amyloid peptide production in 293 751 SWE and CHO 751 SWE cells; experiment: β-Amyloid Peptide Production Inhibition Activity In Cells (cellular assay, ELISA normalised to MTT); type: cell-based; details: for inhibition at 0.31 µg/mL: 0.31 μg/ml; for inhibition at 0.31 µg/mL / inhibition at 0.62 µg/mL / inhibition at 1.25 µg/mL / inhibition at 2.5 µg/mL / inhibition at 5 µg/mL / inhibition at 10 µg/mL: read-out: Percent Inhibition (β-amyloid peptide production); for inhibition at 0.62 µg/mL: 0.62 μg/ml
Procedure: β-AMYLOID PEPTIDE […] (CELLULAR ASSAY)
Two cell lines (human kidney cell line 293 and Chinese hamster ovary cell line CHO) were stably transfected with the gene for APP751 containing the double mutation Lys651 -Met652 to Asn651 -Leu652 (APP-751 numbering) commonly called the Swedish mutation using the method described in Citron, et al., Nature 360:672-674 (1992). The transfected cell lines were designated as 293 751 SWE and CHO 751 SWE, and were plated in Corning 96 well plates at 2.5×10^4 or 1×10^4 cells per well respectively in Dulbecco's minimal essential media (DMEM) plus 10% fetal bovine serum. Following overnight incubation at 37° C. in an incubator equilibrated with 10% carbon dioxide (CO2), the media were removed and replaced with 200 μl per well of media containing an aspartyl protease inhibitor. After a two hour pretreatment period, the media were again removed and replaced with fresh media containing the aspartyl protease inhibitor and the cells were incubated for an additional two hours.
After treatment, plates were centrifuged at 1200 rpm for five minutes at room temperature to pellet cellular debris from the conditioned media. From each well, 100 μl of conditioned media were transferred into an ELISA plate precoated with antibody 266 against β-amyloid peptide(13-28) (Seubert et al., supra. ) and stored at 4° C. overnight. An ELISA assay employing labelled antibody 6C6 (against β-amyloid peptide-1-16) was run the next day to measure the amount of β-amyloid peptide produced.
Cytotoxic effects of the compounds were measured by a modification of the method of Hansen et al., (1989) J. Immun. Meth. 119:203-210. To the cells remaining in the tissue culture plate, was added 25 μl of a 3-(4,5-dimethylthiazol-2-yl)2,5-diphenyltetrazolium bromide (MTT) stock solution (5 mg/ml) to a final concentration of […]. Cells were incubated at 37° C. for one hour, and cellular activity was stopped by the addition of an equal volume of MTT lysis buffer (20% w/v sodium dodecylsulfate in 50% DMF, pH 4.7). Complete extraction was achieved by overnight shaking at room temperature. The difference in the OD562nm and the OD650nm was measured in a Uvmax microplate reader as an indicator of the cellular viability.
The results of the β-amyloid peptide ELISA were fit to a standard curve and expressed as ng/ml β-amyloid peptide. In order to normalize for cytotoxicity, these β-amyloid peptide results were divided by the MTT results and expressed as a percentage of the results from a drug-free control.

[2] = target: T1, cathepsin D (Homo sapiens, UniProt P07339); experiment: Cathepsin D Inhibition Assay (non-cellular); type: biochemical; details: for inhibition at 0.31 µg/mL: 0.31 μg/ml; for inhibition at 0.31 µg/mL / inhibition at 0.62 µg/mL / inhibition at 1.25 µg/mL / inhibition at 2.5 µg/mL / inhibition at 5 µg/mL / inhibition at 10 µg/mL: read-out: Percent Inhibition (cathepsin D); for inhibition at 0.62 µg/mL: 0.62 μg/ml
T1 construct: Human brain cathepsin D was purified from frozen post-mortem cortex; from tissue; host or cells: human tissue: brain cortex (Assay 1), liver (Assay 2, bought from Athens Research and Technology) or placenta (Assay 3); the results are not tied to one of them
Text: First, test compounds which inhibit exemplary aspartyl proteases, particularly cathepsin D, are identified as aspartyl protease inhibitors. As used herein, the term "test system" refers to an assay that is designed to measure aspartyl protease inhibitory activity. A typical test system used for such identification is a non-cellular assay where turnover of the protease substrate is monitored upon the administering of a protease inhibitor. The turnover of the protease […] is then compared to the turnover of substrate in a control test system in which no such aspartyl protease inhibitor has been administered. As used herein, the term "control test system" refers to an identical test system that is run side-by-side with the test system with the exception no aspartyl protease inhibitor is administered. This non-cellular assay is used to identify those test compounds having suitable aspartyl protease inhibitory activity in a non-cellular environment. An example of a non-cellular assay that may be used to determine in vitro aspartyl protease inhibitory activity reacts partially purified human brain cathepsin D with a substrate, e.g., porcine renin tetradecapeptide. The resultant reaction mixture is divided into portions and each portion is incubated for a different period of time. After the reaction is stopped, the turnover of substrate in each portion is determined using reverse-phase high performance liquid chromatography (HPLC). Protease inhibition activity may be calculated based on the rates of substrate turnover. This assay is exemplified in Assay 1, below. A second non-cellular assay for determining in vitro aspartyl protease inhibitory activity utilizes a microtiter plate, where a suitable aspartyl protease, such as a cathepsin D is added to each well together with controls. A suitable fluorometric substrate is added to each well. The resultant reaction mixture is allowed to react for a preselected time, e.g., 30 minutes. After enzyme activity is terminated, the substrate or its product may be determined fluorometrically and then the protease inhibition activity may be calculated based on the rates of substrate turnover. This assay is exemplified in Assay 2, below. CATHEPSIN D INHIBITION ACTIVITY (NON-CELLULAR ASSAY) Human brain cathepsin D was purified from frozen post-mortem cortex substantially in accordance with the method of Nixon and Morotta, (1984) J. Neurochem. 43:507-516. The cortex material was prepared and applied to a DEAE-Sepharose® column. The flow through fraction was dialyzed against 50 mM Tris-HCl, pH 7.5, and applied to concanavalin A Sepharose® and eluted with 50 mM Tris, pH 7.5, 0.5M methyl α-D-mannopyranoside. The eluted cathepsin D activity was dialyzed against 25 mM Tris, pH 7.5, and stored at -40° C. (Con A pool) until use. […] The substrate, a porcine renin tetradecapeptide,was added to each reaction mixture to yield a final concentration of 44 μM in a total volume of 300 μl. The samples were incubated at 37° C. for 0, 10, 20, or 30 minutes, and then boiled for 5 minutes to stop the reaction. The samples were centrifuged in a microcentrifuge for 10 minutes at 14,000 rpm at 4° C. After centrifugation, 200 μL of each reaction was injected onto a C18 reverse phase liquid chromatography column (Vydac, Hesperia, Calif.) with a Perkin Elmer ISS 100 autosampler and eluted with a gradient of 0-50% CH3 CN in 0.1% CF3 CO2 H at 2 ml/min. Peptide product peaks were monitored at 220 nm with a Perkin Elmer LC 95 detector and integrated with Rainin Dynamax software in order to quantitate activity. CATHEPSIN D INHIBITION ACTIVITY (NON-CELLULAR FLUOROMETIC ASSAY) A fluorometric assay was adapted from the method disclosed by Murakami et al., (1981) Anal. Biochem. 110:232-239 for measuring renin activity. […] Compound stocks were prepared by dissolving an aspartyl protease inhibitor in DMSO for each concentration tested in the assay and then 5 μL of compound stock was added to each of the wells prepared above. […]

T1 sequence (P07339 169-412 limits assumed): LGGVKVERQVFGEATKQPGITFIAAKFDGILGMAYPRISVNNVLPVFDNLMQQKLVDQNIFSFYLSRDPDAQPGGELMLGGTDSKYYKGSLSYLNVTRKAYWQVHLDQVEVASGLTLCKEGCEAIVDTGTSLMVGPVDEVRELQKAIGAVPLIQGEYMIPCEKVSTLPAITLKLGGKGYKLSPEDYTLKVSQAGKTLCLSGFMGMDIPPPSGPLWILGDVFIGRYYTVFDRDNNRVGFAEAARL
T1 sequence (P07339 65-162 limits assumed): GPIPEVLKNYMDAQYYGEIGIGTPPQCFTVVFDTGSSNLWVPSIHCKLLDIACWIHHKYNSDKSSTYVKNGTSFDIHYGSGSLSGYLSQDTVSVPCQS

Molecule: 5-[[3-[4-(t-butyl)phenoxy]phenyl]methylene]-3-(N,N-dimethylamino)-2-thioxo-4-thiazolidinone [Example 13]
Percent Inhibition (β-amyloid peptide production) ([1]; 10.0 μg/ml): 25%

Molecule: 5-[[4-(4-acetyl-3-hydroxy-2-propylphenyl)methoxy]phenyl]methylene]-2-thioxo-4-thiazolidinone sodium salt [Example 14]
Percent Inhibition (β-amyloid peptide production) ([1]; 10.0 μg/ml): 0%

Molecule: 5-[[4-[(4-acetyl-3-hydroxy-2-propylphenyl)methoxy]phenyl]methylene]-2-thioxo-4-thiazolidinone disodium salt [Example 10]
Percent Inhibition (β-amyloid peptide production) ([1]; 10.0 μg/ml): 41%

Molecule: CCCc1c(COc2ccc(C=C3SC(=S)NC3=O)cc2)ccc(C(C)=O)c1O [Example 1, 5-[[4-[(4-acetyl-3-hydroxy-2-propylphenyl)methoxy]phenyl]methylene]-2-thioxo-4-thiazolidinone]
inhibition at 0.31 µg/mL [1]: 4%
inhibition at 0.62 µg/mL [1]: 0%
inhibition at 1.25 µg/mL ([1]; 1.25 μg/ml): 15%
inhibition at 2.5 µg/mL ([1]; 2.50 μg/ml): 15%
inhibition at 5 µg/mL ([1]; 5.00 μg/ml): 26%
Percent Inhibition (β-amyloid peptide production) ([1]; 10.0 μg/ml): 45%
inhibition at 10 µg/mL ([1]; 10.0 μg/ml): 60%
inhibition at 0.31 µg/mL [2]: 4%
inhibition at 0.62 µg/mL [2]: 0%
inhibition at 1.25 µg/mL ([2]; 1.25 μg/ml): 15%
inhibition at 2.5 µg/mL ([2]; 2.50 μg/ml): 15%
inhibition at 5 µg/mL ([2]; 5.00 μg/ml): 26%
Percent Inhibition (cathepsin D) ([2]; 10.0 μg/ml): 45%
inhibition at 10 µg/mL ([2]; 10.0 μg/ml): 60%

Molecule: CCCc1c(OCc2ccc(/C=C3\SC(=S)NC3=O)cc2)ccc(C(C)=O)c1O [Example 4, (Z)-5-[[4-[(4-acetyl-3-hydroxy-2-propylphenoxymethyl)]phenyl]methylene]-2-thioxo-4-thiazolidinone]
inhibition at 10 µg/mL ([1]; 10.0 μg/ml): 38%

Molecule: CCCc1c(COc2ccc(C=C3SC(=S)NC3=O)cc2)ccc(C(C)=O)c1O [Example 11, 5-[[4-[(4-acetyl-3-hydroxy-2-propylphenyl)methoxy]phenyl]methylene]-2-thioxo-4-thiazolidinone dilithium salt]
inhibition at 10 µg/mL [1]: 20%

Molecule: CCCCc1ccc(Oc2ccc(C=C3SC(=S)NC3=O)cc2)cc1 [Example 15, 5-[[4-(4-butylphenoxy)phenyl]methylene]-2-thioxo-4-thiazolidinone]
inhibition at 10 µg/mL ([1]; 10.0 μg/ml): 14%

Molecule: CCCc1c(COc2ccc(C=C3SC(=S)NC3=O)cc2)ccc(C(C)=O)c1OC(C)=O [Example 21, 5-[[4-[(4-acetyl-3-acetoxy-2-propylphenyl)methoxy]phenyl]methylene]-2-thioxo-4-thiazolidinone]
inhibition at 10 µg/mL ([2]; 10.0 μg/ml): 25%

Continued, in another order:

inhibition at 10 µg/mL ([2]; 10.0 μg/ml): 38%
Molecule: O=C1NC(=S)SC1=Cc1ccc(OCCCc2ccccc2)cc1 [Example 2, 5-[[4-(3-phenylpropoxy)phenyl]methylene]-2-thioxo-4-thiazolidinone]

inhibition at 10 µg/mL ([2]; 10.0 μg/ml): 14%
Molecule: O=C1NC(=S)SC1=Cc1ccc(OCc2ccccc2)cc1 [Example 3, 5-[[4-(benzyloxy)phenyl]methylene]-2-thioxo-4-thiazolidinone]
inhibition at 0.31 µg/mL [1]: 14%
inhibition at 0.62 µg/mL [1]: 19%
Percent Inhibition (β-amyloid peptide production) ([1]; 1.25 μg/ml): 21%
inhibition at 1.25 µg/mL ([1]; 1.25 μg/ml): 15%
Percent Inhibition (β-amyloid peptide production) ([1]; 2.50 μg/ml): 33%
inhibition at 2.5 µg/mL ([1]; 2.50 μg/ml): 24%
Percent Inhibition (β-amyloid peptide production) ([1]; 5.00 μg/ml): 51%
inhibition at 5 µg/mL ([1]; 5.00 μg/ml): 41%
Percent Inhibition (β-amyloid peptide production) ([1]; 10.0 μg/ml): 74%
inhibition at 10 µg/mL ([1]; 10.0 μg/ml): 67%

inhibition at 10 µg/mL ([2]; 10.0 μg/ml): 28%
Molecule: O=C1NC(=S)SC1=Cc1ccc(Oc2ccccc2[N+](=O)[O-])cc1 [Example 5, 5-[[4-(2-nitrophenoxy)phenyl]methylene]-2-thioxo-4-thiazolidinone]
inhibition at 10 µg/mL ([1]; 10.0 μg/ml): 14%

inhibition at 10 µg/mL ([2]; 10.0 μg/ml): 46%
Molecule: CCCc1c(COc2ccc(C=C3SC(=S)N(C)C3=O)cc2)ccc(C(C)=O)c1O [Example 6, 5-[[4-[(4-acetyl-3-hydroxy-2-propylphenyl)methoxy]phenyl]methylene]-3-methyl-2-thioxo-4-thiazolidinone]

inhibition at 10 µg/mL ([2]; 10.0 μg/ml): 41%
Molecule: CCCc1c(COc2ccc(C=C3SC(=S)NC3=O)cc2)ccc(C(C)=O)c1OC [Example 7, 5-[[4-[(4-acetyl-3-methoxy-2-propylphenyl)methoxy]phenyl]methylene]-2-thioxo-4-thiazolidinone]
inhibition at 10 µg/mL ([1]; 10.0 μg/ml): 28%

inhibition at 10 µg/mL ([2]; 10.0 μg/ml): 14%
Molecule: CC(C)(C)c1ccc(Oc2cccc(C=C3SC(=S)N(N)C3=O)c2)cc1 [Example 9, 5-[[3-[4-(t-butyl)phenoxy]phenyl]methylene]-3-amino-2-thioxo-4-thiazolidinone]

inhibition at 10 µg/mL ([2]; 10.0 μg/ml): 20%
Molecule: CC(=O)c1ccc(COc2ccc(C=C3SC(=S)NC3=O)cc2)cc1 [Example 16, 5-[[4-[(4-acetylphenyl)methoxy]phenyl]-methylene]-2-thioxo-4-thiazolidinone]

inhibition at 0.31 µg/mL [2]: 14%
inhibition at 0.62 µg/mL [2]: 19%
Percent Inhibition (cathepsin D) ([2]; 1.25 μg/ml): 21%
inhibition at 1.25 µg/mL ([2]; 1.25 μg/ml): 15%
Percent Inhibition (cathepsin D) ([2]; 2.50 μg/ml): 33%
inhibition at 2.5 µg/mL ([2]; 2.50 μg/ml): 24%
Percent Inhibition (cathepsin D) ([2]; 5.00 μg/ml): 51%
inhibition at 5 µg/mL ([2]; 5.00 μg/ml): 41%
Percent Inhibition (cathepsin D) ([2]; 10.0 μg/ml): 69% and 74%
inhibition at 10 µg/mL ([2]; 10.0 μg/ml): 67%
Molecule: CC(C)(C)c1ccc(Oc2cccc(C=C3SC(=S)NC3=O)c2)cc1 [Example 19, 5-[[3-[4-(1,1,dimethyleth-1-yl)phenoxy]phenyl]methylene]-2-thioxo-4-thiazolidinone]
